Experimental data: patent US20090062267A1, “L-ALANINE DERIVATIVES AS a5beta1 ANTAGONISTS” (ASTRAZENECA AB, priority 2007, published 2009)

target: recombinant human α5β1 (Homo sapiens, UniProt P05556+P08648); assay: In Vitro Binding Assay (a): inhibition of binding of α5β1 integrin to a fragment of human fibronectin (Fn9-10), Origen electrochemiluminescence; details: geometric mean where tested more than once
Excerpt: The assay determined the ability of compounds to inhibit binding of α5β1 integrin to a cognate ligand, a fragment of human fibronectin. The assay used Origen technology (IGEN International) to measure the compound activity. Briefly, α5β1 integrin was coated onto epoxy-paramagnetic beads (Dynal Biotech UK, Bromborough, Wirral, CH62 3QL, UK, Catalogue No 140.11) and biotinylated-fibronectin ligand was coupled to strepatividin labeled Tag-NHS-Ester (BioVeris Corporation, Witney, Oxfordshire, OX28 4GE, UK, Catalogue No 110034). The ruthenium-labeled tag emits an electrochemiluminescence signal upon stimulation which is detected by the Origen reader. Thus, interaction of integrin and ligand causes association of bead and tag, and the resulting electrochemiluminescence signal reflects the level of integrin interaction with fibronectin.
20 μg of recombinant human α5β1 was coated onto 4×10(7) epoxy-paramagnetic beads according to manufacturers instructions at 4° C. for 24 hours. Integrin coating and corresponding activity was subsequently measured for each batch but typically, 25 ng of coated protein was used per assay well.
A DNA fragment encoding the domains 9-10 (amino-acids 1325-1509) of human fibronectin (Swiss-Prot Accession No. P02751) was isolated from cDNA libraries using standard molecular biology and PCR cloning techniques. The cDNA fragment was sub-cloned into a pT73.3 expression vector containing a GST-epitope tag (developed at AstraZeneca; Bagnall et al., Protein Expression and Purification, 2003, 27: 1-11). Following expression in E. coli, the expressed protein, termed Fn9-10, was purified using the GST-tag using standard purification techniques. The recombinant Fn9-10 was subsequently biotinylated using a EZ-link Sulfo-NHS-LC-Biotinylation kit (Perbio Science UK Ltd., Cramlington, Northumberland, NE23 1WA, UK, Catalogue No. 21335) and made to give a final concentration of approximately 1 mg/ml. Tag-NHS-Ester was labeled with streptavidin by incubation at room temperature following manufacturers instructions and buffer-exchanged into PBS to give a concentration of 0.5 mg/ml. Immediately prior to the assay, biotinylated-Fn9-10 and Streptavidin-labeled Tag were diluted in Assay Buffer to give a final concentrations of 0.6 ug/ml and 1.5 ug/ml respectively. The Fn9-10 and Tag solutions were then mixed together in equal volumes and incubated on ice for at least 30 minutes prior to the assay.
Aliquots (20 μl) of each compound dilution were placed into each well of a 384-well round bottomed polypropylene plate (Matrix Technologies, Wilmslow, Cheshire, SK9 3LP, Catalogue No. 4340 384).
For the assay, 25 ng (20 ul) of a5b1-bead suspension and 40 μl of the Fn9-10/Tag pre-incubated solution were added to each well containing 20 μl of compound or control solution. Assay plates were then incubated at room temperature for a minimum of 6 hours before being analysed on an Origen plate reader. The minimum value was subtracted from all values, and the signal was plotted against compound concentration to generate IC50 data.
The data in the above table was generated in an assay substantially as described above in relation to Binding Assay (a). Some of the compounds shown in the table were tested more than once in the assay. For those compounds the IC50 value shown is the geometric mean of the measured IC50 values.

Sequence of recombinant human α5β1 (P08648 42-1049): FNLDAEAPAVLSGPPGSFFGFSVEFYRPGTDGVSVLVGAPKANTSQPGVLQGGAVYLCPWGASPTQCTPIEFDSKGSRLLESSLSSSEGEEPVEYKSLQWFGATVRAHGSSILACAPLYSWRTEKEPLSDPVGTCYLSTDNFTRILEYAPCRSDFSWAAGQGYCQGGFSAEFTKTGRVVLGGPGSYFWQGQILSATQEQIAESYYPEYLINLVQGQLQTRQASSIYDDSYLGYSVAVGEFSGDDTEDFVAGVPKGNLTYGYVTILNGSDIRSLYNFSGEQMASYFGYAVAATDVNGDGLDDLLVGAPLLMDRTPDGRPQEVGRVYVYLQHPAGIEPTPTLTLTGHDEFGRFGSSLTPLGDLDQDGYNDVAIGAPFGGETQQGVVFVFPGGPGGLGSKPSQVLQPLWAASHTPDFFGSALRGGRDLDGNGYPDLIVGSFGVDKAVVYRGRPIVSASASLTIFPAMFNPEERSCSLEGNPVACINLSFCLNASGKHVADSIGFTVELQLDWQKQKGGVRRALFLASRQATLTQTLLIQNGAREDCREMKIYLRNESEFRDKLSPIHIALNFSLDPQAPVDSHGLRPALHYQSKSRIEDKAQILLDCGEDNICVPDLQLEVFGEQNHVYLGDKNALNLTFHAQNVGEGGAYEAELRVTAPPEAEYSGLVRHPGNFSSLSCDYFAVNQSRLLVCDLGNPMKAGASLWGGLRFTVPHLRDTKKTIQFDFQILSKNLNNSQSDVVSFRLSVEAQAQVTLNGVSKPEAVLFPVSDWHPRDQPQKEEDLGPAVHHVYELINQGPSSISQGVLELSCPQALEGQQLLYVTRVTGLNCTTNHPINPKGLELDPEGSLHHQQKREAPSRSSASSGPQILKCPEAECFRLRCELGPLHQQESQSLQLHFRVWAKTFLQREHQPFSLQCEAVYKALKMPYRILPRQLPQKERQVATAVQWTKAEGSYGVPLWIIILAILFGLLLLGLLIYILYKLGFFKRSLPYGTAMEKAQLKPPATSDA
Sequence of recombinant human α5β1 (P05556 21-798): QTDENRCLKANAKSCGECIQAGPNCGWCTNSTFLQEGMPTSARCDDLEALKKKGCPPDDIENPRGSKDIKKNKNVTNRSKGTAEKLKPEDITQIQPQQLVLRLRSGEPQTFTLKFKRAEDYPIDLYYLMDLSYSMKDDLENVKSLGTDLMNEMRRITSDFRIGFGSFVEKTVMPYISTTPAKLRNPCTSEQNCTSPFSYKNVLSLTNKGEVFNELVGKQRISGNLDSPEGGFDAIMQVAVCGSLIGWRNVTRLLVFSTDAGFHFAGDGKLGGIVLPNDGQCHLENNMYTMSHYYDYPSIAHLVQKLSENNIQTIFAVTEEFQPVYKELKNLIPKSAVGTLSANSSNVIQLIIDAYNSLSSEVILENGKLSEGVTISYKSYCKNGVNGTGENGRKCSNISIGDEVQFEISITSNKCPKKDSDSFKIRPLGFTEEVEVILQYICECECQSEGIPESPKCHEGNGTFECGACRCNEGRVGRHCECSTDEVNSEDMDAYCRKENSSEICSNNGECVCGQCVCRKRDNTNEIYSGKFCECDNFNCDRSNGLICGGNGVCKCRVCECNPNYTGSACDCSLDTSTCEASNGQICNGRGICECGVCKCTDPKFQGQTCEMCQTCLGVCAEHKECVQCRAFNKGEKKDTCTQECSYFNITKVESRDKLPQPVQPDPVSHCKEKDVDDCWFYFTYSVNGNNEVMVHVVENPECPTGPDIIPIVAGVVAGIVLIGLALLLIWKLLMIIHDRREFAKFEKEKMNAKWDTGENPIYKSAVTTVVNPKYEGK

Row | IC50 [nM] | Structure (SMILES)
1 | 17 | CNc1cccc(CCOc2ccc(C[C@H](NC(=O)c3c(C)n[nH]c3C)C(=O)O)cc2)n1 [Example 1.13, N-[(3,5-dimethyl-1H-pyrazol-4-yl)carbonyl]-O-{2-[6-(methylamino)pyridin-2-yl]ethyl}-L-tyrosine]
2 | 7 | O=C(N[C@@H](Cc1ccc(OCCc2ccc3c(n2)NCCC3)nc1)C(=O)O)c1sccc1Cl [Example 9, N-[(3-chlorothiophen-2-yl)carbonyl]-3-{6-[2-(5,6,7,8-tetrahydro-1,8-naphthyridin-2-yl)ethoxy]pyridin-3-yl}-L-alanine]
3 | 131 | CNc1cccc(CCOc2ccc(C[C@H](NC(=O)c3ncccc3C)C(=O)O)cc2)n1 [Example 2.7, O-{2-[6-(methylamino)pyridin-2-yl]ethyl}-N-[(3-methylpyridin-2-yl)carbonyl]-L-tyrosine]
4 | 35 | CNc1cccc(CCOc2ccc(C[C@H](NC(=O)c3ncc(Cl)cc3Cl)C(=O)O)cc2)n1 [Example 1.24, N-[(3,5-dichloropyridin-2-yl)carbonyl]-O-{2-[6-(methylamino)pyridin-2-yl]ethyl}-L-tyrosine]
5 | 94 | Cn1c(C(=O)N[C@@H](Cc2ccc(OCCc3ccc4c(n3)NCCC4)cc2)C(=O)O)c(Cl)c2ccccc21 [Example 5.3, N-[(3-chloro-1-methyl-1H-indol-2-yl)carbonyl]-O-[2-(5,6,7,8-tetrahydro-1,8-naphthyridin-2-yl)ethyl]-L-tyrosine]
6 | 4 | O=C(N[C@@H](Cc1ccc(CCCc2ccc3c(n2)NCCC3)cn1)C(=O)O)c1sccc1Cl [Example 8, N-[(3-chlorothiophen-2-yl)carbonyl]-3-{5-[3-(5,6,7,8-tetrahydro-1,8-naphthyridin-2-yl)propyl]pyridin-2-yl}-L-alanine]
7 | 71 | CCCc1cc(C(=O)N[C@@H](Cc2ccc(OCCc3cccc(NC)n3)cc2)C(=O)O)cs1 [Example 1.29, O-{2-[6-(methylamino)pyridin-2-yl]ethyl}-N-[(5-propyl-3-thienyl)carbonyl]-L-tyrosine]
8 | 229 | CNc1cccc(CCOc2ccc(C[C@H](NC(=O)c3ccc(C)s3)C(=O)O)cc2)n1 [Example 1.3, O-{2-[6-(methylamino)pyridin-2-yl]ethyl}-N-[(5-methyl-2-thienyl)carbonyl]-L-tyrosine]
9 | 1 | Cc1noc(C)c1C(=O)N[C@@H](Cc1ccc(OCCc2ccc3c(n2)NCCO3)cc1)C(=O)O [Example 4.3, O-[2-(3,4-dihydro-2H-pyrido[3,2-b][1,4]oxazin-6-yl)ethyl]-N-[(3,5-dimethylisoxazol-4-yl)carbonyl]-L-tyrosine]
10 | 151 | CNc1cccc(CCOc2ccc(C[C@H](NC(=O)c3occc3C)C(=O)O)cc2)n1 [Example 1.6, O-{2-[6-(methylamino)pyridin-2-yl]ethyl}-N-(3-methyl-2-furoyl)-L-tyrosine]
11 | 80 | CNc1cccc(CCOc2ccc(C[C@H](NC(=O)c3oc4ccccc4c3C)C(=O)O)cc2)n1 [Example 2.5, O-{2-[6-(methylamino)pyridin-2-yl]ethyl}-N-[(3-methyl-1-benzofuran-2-yl)carbonyl]-L-tyrosine]
12 | 51 | O=C(N[C@@H](Cc1ccc(OCCc2ccc3c(n2)NCCO3)cc1)C(=O)O)c1sccc1Cl [Example 4.2, N-[(3-chlorothiophen-2-yl)carbonyl]-O-[2-(3,4-dihydro-2H-pyrido[3,2-b][1,4]oxazin-6-yl)ethyl]-L-tyrosine]
13 | 111 | CNc1cccc(CCOc2ccc(C[C@H](NC(=O)c3c(Cl)c4ccccc4n3C)C(=O)O)cc2)n1 [Example 1.26, N-[(3-chloro-1-methyl-1H-indol-2-yl)carbonyl]-O-{2-[6-(methylamino)pyridin-2-yl]ethyl}-L-tyrosine]
14 | 20 | CNc1cccc(CCOc2ccc(C[C@H](NC(=O)c3cccnc3Cl)C(=O)O)cc2)n1 [Example 3.1, N-[(2-chloropyridin-3-yl)carbonyl]-O-{2-[6-(methylamino)pyridin-2-yl]ethyl}-L-tyrosine]
15 | 23 | CNc1cccc(CCOc2ccc(C[C@H](NC(=O)c3conc3C)C(=O)O)cc2)n1 [Example 2.2, O-{2-[6-(methylamino)pyridin-2-yl]ethyl}-N-[(3-methylisoxazol-4-yl)carbonyl]-L-tyrosine]
16 | 75 | CCc1cc(C(=O)N[C@@H](Cc2ccc(OCCc3cccc(NC)n3)cc2)C(=O)O)cs1 [Example 1.28, N-[(5-ethyl-3-thienyl)carbonyl]-O-{2-[6-(methylamino)pyridin-2-yl]ethyl}-L-tyrosine]
17 | 10 | CNc1cccc(CCOc2ccc(C[C@H](NC(=O)c3ccncc3C)C(=O)O)cc2)n1 [Example 1.21, O-{2-[6-(methylamino)pyridin-2-yl]ethyl}-N-(3-methylisonicotinoyl)-L-tyrosine]
18 | 21 | CNc1cccc(CCOc2ccc(C[C@H](NC(=O)c3sccc3Cl)C(=O)O)nc2)n1 [Example 7, N-[(3-chlorothiophen-2-yl)carbonyl]-3-(5-{2-[6-(methylamino)pyridin-2-yl]ethoxy}pyridin-2-yl)-L-alanine]
19 | 8 | CNc1cccc(CCOc2ccc(C[C@H](NC(=O)c3cnccc3Cl)C(=O)O)cc2)n1 [Example 2.8, N-[(4-chloropyridin-3-yl)carbonyl]-O-{2-[6-(methylamino)pyridin-2-yl]ethyl}-L-tyrosine]
20 | 4 | Cc1cnccc1C(=O)N[C@@H](Cc1ccc(OCCc2ccc3c(n2)NCCO3)cc1)C(=O)O [Example 4.5, O-[2-(3,4-dihydro-2H-pyrido[3,2-b][1,4]oxazin-6-yl)ethyl]-N-[(3-methylpyridin-4-yl)carbonyl]-L-tyrosine]
21 | 15 | CNc1cccc(CCOc2ccc(C[C@H](NC(=O)c3cc(Cl)sc3Cl)C(=O)O)cc2)n1 [Example 1.11, N-[(2,5-dichloro-3-thienyl)carbonyl]-O-{2-[6-(methylamino)pyridin-2-yl]ethyl}-L-tyrosine]
22 | 13 | CNc1cccc(CCOc2ccc(C[C@H](NC(=O)c3c(C)nn(C)c3C)C(=O)O)cc2)n1 [Example 1.14, O-{2-[6-(methylamino)pyridin-2-yl]ethyl}-N-[(1,3,5-trimethyl-1H-pyrazol-4-yl)carbonyl]-L-tyrosine]
23 | 1 | CNc1cccc(CCOc2ccc(C[C@H](NC(=O)c3c(Cl)cncc3Cl)C(=O)O)cc2)n1 [Example 1.19, N-(3,5-dichloroisonicotinoyl)-O-{2-[6-(methylamino)pyridin-2-yl]ethyl}-L-tyrosine]
24 | 89 | CNc1cccc(CCOc2ccc(C[C@H](NC(=O)c3scc(C)c3Cl)C(=O)O)cc2)n1 [Example 1.17, N-[(3-chloro-4-methyl-2-thienyl)carbonyl]-O-{2-[6-(methylamino)pyridin-2-yl]ethyl}-L-tyrosine]
25 | 50 | CNc1cccc(CCOc2ccc(C[C@H](NC(=O)c3cc(C)cs3)C(=O)O)cc2)n1 [Example 1.27, O-{2-[6-(methylamino)pyridin-2-yl]ethyl}-N-[(4-methyl-2-thienyl)carbonyl]-L-tyrosine]
26 | 36 | CNc1cccc(CCOc2ccc(C[C@H](NC(=O)c3ncc(C(F)(F)F)cc3Cl)C(=O)O)cc2)n1 [Example 1.25, N-{[3-chloro-5-(trifluoromethyl)pyridin-2-yl]carbonyl}-O-{2-[6-(methylamino)pyridin-2-yl]ethyl}-L-tyrosine]
27 | 12 | CNc1cccc(CCOc2ccc(C[C@H](NC(=O)c3sccc3Cl)C(=O)O)cc2)n1 [Example 1.1, N-[(3-chloro-2-thienyl)carbonyl]-O-{2-[6-(methylamino)pyridin-2-yl]ethyl}-L-tyrosine]
28 | 41 | CNc1cccc(CCOc2ccc(C[C@H](NC(=O)c3sc(C)nc3C)C(=O)O)cc2)n1 [Example 1.5, N-[(2,4-dimethyl-1,3-thiazol-5-yl)carbonyl]-O-{2-[6-(methylamino)pyridin-2-yl]ethyl}-L-tyrosine]
29 | 2.2 | Cc1noc(C)c1C(=O)N[C@@H](Cc1ccc(CCCc2ccc3c(n2)NCCC3)cc1)C(=O)O [Example 5.4, N-[(3,5-dimethylisoxazol-4-yl)carbonyl]-4-[3-(5,6,7,8-tetrahydro-1,8-naphthyridin-2-yl)propyl]-L-phenylalanine]
